Results on 67 compounds are retold here after PubChem BioAssay AID1902 (Broad Institute, 2009).

SMILES strings stand for the structures. The source made the active and inactive calls.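 How the source made its calls: active means EC50 no more than a set limit of log units above the highest dose; inactive means the rest.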

This test has as its target S. pyogenes SKKanGAS, kanamycin survival, BacTiterGlo, 6 h. Kind of test: SKKanGAS survival reduction under kanamycin, dose response, streptokinase promoter inhibitor project, SKKanGAS strain, luminescence, dose confirmation (AID 1902).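 Further: lower survival reflects blocked streptokinase promoter driving kanamycin resistance gene.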
The EC50 is the concentration giving half of the maximal effect. As to `Cc1ccc(NS(=O)(=O)c2ccc(C3CCCCC3)cc2)cc1`, the EC50 is 4320 nM. Take `Cc1cc([N+](=O)[O-])cc(/C=N/n2c(C)nc3ccccc3c2=O)c1O`: the EC50 was 4070 nM. With `CCCCCCC(=O)N/N=C/c1c(O)n(C(C)CC)c(=S)[nH]c1=O` (configuration not stated), the concentration for a half-maximal effect (EC50) is 3220 nM.

As for `CCOC(=O)c1ccc(NC(=O)c2nc[nH]c2C(=O)N[C@@H](Cc2ccccc2)C(=O)OC(C)(C)C)cc1`, the EC50 was 3170 nM.

For the compound `CC(C)c1ccc(N2C(=O)/C(=C/N(C)C)SC2=S)cc1`, the EC50 is 4700 nM. `O=c1cc(-c2ccccc2)[nH]n1-c1nc2ccccc2s1`: the half-maximal effective concentration (EC50) is 2720 nM. In the case of `COc1ccccc1-c1cc(-c2ccccc2)nc(SCC(=O)O)c1C#N`, the EC50 was 1970 nM. On to `COc1cc(C(=O)NC(=S)N(CCc2ccccc2)CCc2ccccc2)cc(OC)c1OC`, for which the concentration for a half-maximal effect (EC50) is 328 nM. Regarding `COc1ccc(NC(=S)NNc2ccc([N+](=O)[O-])cc2S(=O)(=O)Nc2ccc(C)cc2C)cc1`, the EC50 was 8340 nM. Consider `O=c1cc(N2CCCCC2)c(-c2ccccc2)nn1Cc1ccc(Cl)cc1Cl`, for which the EC50 is 3040 nM. With `CC(NC(=O)Nc1nnc(C(F)(F)F)s1)(C(F)(F)F)C(F)(F)F`, the concentration giving a half-maximal response (EC50) was 2970 nM. `Cc1ccc(Nc2cc(C)nn2-c2nc(C)cc(C)n2)cc1`: the concentration for a half-maximal effect (EC50) is 6470 nM. In the case of `CCc1nnc(NC(=O)c2cccc(C(=O)Nc3nnc(CC)s3)n2)s1`, the EC50 is 961 nM. For `NNC(=O)/C(=N/Nc1ccccc1)S(=O)(=O)c1ccc(Cl)cc1`, the EC50 is 8150 nM. As to `Cc1cccc2sc(NNC(=O)c3ccc(S(=O)(=O)N4CCc5ccccc5C4)cc3)nc12`, the concentration giving a half-maximal response (EC50) was 368 nM. `CCOc1cccc(/C=N/NC(=O)c2ccc3c(c2)OCCO3)c1O`: the concentration for a half-maximal effect (EC50) was 1270 nM. With `CCc1sc(N(C(=O)Cc2ccccc2)c2cccc(F)c2)nc1-c1ccc(C)cc1`, the EC50 is 1770 nM. For the compound `O=C(Nc1ccc(F)c(Cl)c1)Nc1csc2ccccc12`, the EC50 is 2790 nM. For `N#Cc1c(NC(=S)NC(=O)C2CCCC2)sc2c1CCCCC2`, the half-maximal effective concentration (EC50) was 6330 nM. Consider `Cc1cc(N/N=C\c2ccc(Br)cc2)nc(-n2nc(C)cc2C)n1`, for which the EC50 was 414 nM. For the compound `O=C(Nc1cccc(-c2csc(Nc3cccc(C(F)(F)F)c3)n2)c1)c1ccccc1`, the EC50 was 4330 nM. Regarding `COc1ccc(/C=C/C(=O)NC(=S)NNC(=O)c2cnccn2)cc1`, the concentration for a half-maximal effect (EC50) was 5920 nM. For the compound `Oc1ccc(Br)cc1/C=N/NC(=S)NCCc1ccccc1`, the half-maximal effective concentration (EC50) is 1930 nM. For `Cc1cccc(C(=O)NC(=S)NNC(=O)c2ccc(Cl)cc2)c1`, the EC50 was 187 nM. As for `O=C(O)C(c1ccccc1)N1C(=O)/C(=C\c2ccc(-c3ccc(Br)cc3)o2)SC1=S` (configuration not stated), the EC50 was 1270 nM. The result for `CCCCSc1nc(C)cc(SCC(=O)N/N=C/c2cccc(OC)c2O)n1` reads 2140 nM. For the compound `Oc1ccc(Cl)cc1-c1cc(-c2cccc(Br)c2)n[nH]1`, the EC50 is 3620 nM.

For `CCN(CC)c1nc(Nc2ccc([N+](=O)[O-])cc2)nc(N(CC)CC)n1`, the EC50 is 3150 nM. Consider `COc1cc(/C=C/C(=O)OCC(=O)c2c(N)n(C)c(=O)n(C)c2=O)ccc1OCC#N`, for which the EC50 is 5450 nM. On to `Cn1c2ccccc2c(=O)c2cc(C#Cc3ccc(N)cc3)ccc21`, for which the EC50 was 1350 nM. On to `COc1cnc(-c2ccccn2)nc1N(C)c1ccccc1`, for which the EC50 was 6800 nM. With `Cc1cc(C)c2nc(NNC(=O)c3ccc(S(=O)(=O)N4CC(C)CC(C)C4)cc3)sc2c1` (configuration not stated), the half-maximal effective concentration (EC50) is 815 nM. Take `COc1ccc(C(=O)NCC(=O)OCCCOC(=O)CNC(=O)c2ccc(OC)c(OC)c2)cc1OC`: the EC50 was > 15000 nM (inactive).

In the case of `CCN(CC)S(=O)(=O)c1cc(OC)ccc1N=Nc1ccc(O)c2ncccc12`, the EC50 was 1920 nM. As to `O=C(CSC(=S)N1CCCCC1)Nc1nc(-c2ccccc2)c(-c2ccccc2)o1`, the EC50 was 1760 nM.

Take `Cc1ccccc1C(=O)Nc1scc(-c2ccc(Br)cc2)c1C(=O)O`: the EC50 was 1820 nM.

Turning to `CCOC(=O)c1sc2nc(Cc3ccc(Cl)cc3)[nH]c(=S)c2c1C`, the EC50 was 3210 nM.

For the compound `C/C(=N\Nc1nc(N2CCCCCC2)nc(N2CCCCCC2)n1)c1ccccc1`, the EC50 was 3690 nM.

Take `O=C1C(Nc2ccccc2)=C/C(=N/S(=O)(=O)c2cccs2)c2ccccc21`: the EC50 is 1330 nM. The result for `O=C(O)c1cc(-c2ccc(-c3c(-c4ccc5c(c4)OCO5)noc3-c3ccsc3)cc2)nc2ccccc12` reads 1840 nM; that for `CCOC(=O)c1sc(Nc2nc3ccc(OC)cc3s2)cc1C`, 2950 nM; that for `Cc1ccccc1OCCCc1c(C)n[nH]c1C`, 1090 nM.

Regarding `Cc1cc(N/N=C/c2ccc(O)c(C)c2O)nc(-c2ccccc2O)n1`, the EC50 was 3090 nM. Turning to `COc1cccc(-c2nc(N3CC(C)CC(C)C3)c3ccccc3n2)c1O` (configuration not stated), the EC50 was 3050 nM. Take `CNC(=S)N1CCN(c2c(F)cc3c(=O)c(C(=O)O)cn(C4CC4)c3c2OC)CC1C` (configuration not stated): the EC50 was 160 nM. In the case of `Cc1cc(C)n(-c2nc(NC(C)(C)C)nc(NC(C)(C)C)n2)n1`, the concentration giving a half-maximal response (EC50) was 396 nM. For the compound `Cc1ccc(C(=O)N2CCCC(CCC(=O)NCc3ccccc3F)C2)cn1` (configuration not stated), the EC50 is > 15000 nM (inactive). Take `CCn1c(=O)c(C(=O)Nc2nc3ccccc3[nH]2)c(O)c2ccccc21`: the EC50 is 1030 nM. `CC(C)C[C@H](NC(=O)c1nc[nH]c1C(=O)N[C@@H](CC(C)C)C(=O)OC(C)(C)C)C(=O)OCc1ccccc1`: the EC50 was 1450 nM.

`O=S(=O)(c1ccccc1)N1CCN=C1SCc1c(F)cccc1Cl`: the 50% effective concentration (EC50) is 8150 nM. Regarding `COc1ccc(OCCCC(=O)Nc2nc(-c3ccccn3)cs2)cc1`, the 50% effective concentration (EC50) was 309 nM.

As to `Cn1c(C(=O)N2CCN(c3ccc([N+](=O)[O-])cc3)CC2)cc2c(=O)[nH]c3ccccc3c21`, the half-maximal effective concentration (EC50) is 4560 nM. As for `CCC(=O)Nc1ccc(Nc2nc(C)c([N+](=O)[O-])c(Nc3ccc(NC(=O)CC)cc3)n2)cc1`, the EC50 is 1560 nM. In the case of `COC(=O)c1nc(NC(=S)NC(=O)c2cccs2)sc1C`, the 50% effective concentration (EC50) is 12700 nM. As for `Cc1onc(-c2ccccc2)c1C(=O)NC(=S)NNC(=O)c1ccc(O)cc1O`, the EC50 was 2670 nM. Take `CC(C)Nc1nc(Oc2cccc(Cl)c2Cl)cc(C(F)(F)F)n1`: the half-maximal effective concentration (EC50) was 5290 nM. With `CC(C)(C)c1ccc2c(c1)OC(C(=O)N/N=C/c1ccc([N+](=O)[O-])o1)CO2` (configuration not stated), the EC50 was 3920 nM. In the case of `COc1ccc(-n2c(SCC(=O)Nc3ccccc3)nc(O)cc2=O)cc1`, the EC50 was 15200 nM. As to `CC(C)(C)c1ccc(C(=O)Nc2nnc(C3=COCCO3)o2)cc1`, the concentration giving a half-maximal response (EC50) is 446 nM.

Regarding `CNC[C@H](CC1CCCCC1)NC[C@H](Cc1ccccc1)NCCC12CC3CC(CC(C3)C1)C2`, the concentration for a half-maximal effect (EC50) is 2940 nM. On to `COc1ccccc1N=C1NC(=O)/C(=C/c2ccc(N(C)C)cc2)S1`, for which the EC50 was 6080 nM. With `Cc1ccc(NC(=S)c2nc3ccccc3[nH]2)c(C)c1` the figure was 1740 nM; with `COc1cc(OC)cc(C(=O)NC(=S)NNC(=O)Cc2cccs2)c1`, 716 nM; with `Cc1cc(/C=N/n2cnnc2)c(C)n1-c1ccc(OCc2ccc(Cl)cc2Cl)cc1`, 2100 nM.

As for `Cc1cc(=O)oc2cc(OCC(=O)N3CCN(C(=O)C4COc5ccccc5O4)CC3)ccc12` (configuration not stated), the EC50 was 3160 nM. `OC(COc1cccc2ccccc12)CN1CCN(c2ccc(Cl)cc2)CC1` (configuration not stated): the concentration for a half-maximal effect (EC50) is 15400 nM. As for `COC(=O)[C@@]12CCCN1[C@H](c1ccc(-c3cccc(Cl)c3)c(OC)c1)[C@H]1C(=O)N(C)C(=O)[C@H]12`, the EC50 is > 15000 nM (inactive).
